Results from publication PMC7724566, “Prospects for Clinical Development of Stat5 Inhibitor IST5-002: High Transcriptomic Specificity in Prostate Cancer and Low Toxicity In Vivo” (Cancers, 2020).

Legend:
Assay type in all cases: cell-based, human
[1] = system: CWR22Pc cells; assay: RNA-seq transcriptome, IST5 vs. genetic Stat5 knockdown; details: 3 days
Text: In order to evaluate the potential of IST5 for further optimization for clinical development, we compared the IST5-induced transcriptome to that of Stat5 genetic knockdown in PC cells. Stat5 expression was inhibited by lenti-viral expression of shStat5 or shCtrl in CWR22Pc cells for 3 days (Figure 2A). CWR22Pc cells were chosen as the model system because the cell line expresses both Stat5 and androgen receptor and mimics the course of disease progression in PC patient. When grown in mice as xenograft tumors, CWR22Pc cells form androgen-dependent tumors which regress in response to androgen deprivation but later recur as Castrate-Resistant Prostate Cancer (CRPC) tumors. In parallel wells, CWR22Pc cells were treated with IST5 or vehicle for 3 days. We performed RNA-seq to profile the gene expression changes and received an average of 22.4 million paired-end clean reads from each sample (Table S5). […] Most importantly, the similarity between the transcriptomes regulated by shStat5 vs. IST5 was remarkably high, with Pearson correlation coefficient ranging from 0.98–0.99 (Figure 2C).
Figure 2 IST5 show high transcriptional specificity in prostate cancer cells. […]
Total RNA of each replicate sample was isolated using RNeasy Micro Kit (QIAGEN, Valencia, CA, USA) and reverse transcribed with Super-Script III Reverse Transcriptase (Life Technologies, Brown Deer, WI, USA) following the manufacturer’s instructions. […] RNA quality was assessed by Agilent Bioanalyzer 2100 (Agilent, Santa Clara, CA, USA), and RNA integrity number (RIN) ≥7.5 was qualified for subsequent RNA-seq analysis.
We performed RNA-seq to evaluate the transcriptomes regulated by IST5 vs. genetic knockdown (lenti-shStat5) of Stat5 with corresponding controls (vehicle or lenti-shCtrl). […] Sequencing data (fastq files) were quantified with a software tool Salmon (version 1.1.0). […] Transcripts with less than 10 median read-counts were filtered out. […] Statistical significance was determined at a FDR threshold <0.01. […]

[2] = system: BRCA2; assay: qRT-PCR mRNA level; details: CWR22Pc cells, 6 µM vs. vehicle, 3 days
Text: (§1) Specifically, significant changes were evident in 21 of 203 genes associated with DNA replication and nuclear division (Figure 3B). Specifically, genes associated with minichromosome maintenance family (MCM2, MCM3, MCM4, MCM5, MCM10) were regulated by both IST5 and shStat5 in PC cells, and were associated with DNA replication and DNA replication initiation process as indicated by the functional module analysis (Figure 3). In addition, suppression of the top genes regulated by IST5 and genetic knockdown of Stat5 was confirmed by quantitative real-time polymerase chain reaction (qRT-PCR) in CWR22Pc cells after 3 days of Stat5 inhibition (Figure 3C). It is important to note that the gene expression changes induced by both shStat5 and IST5 in PC cells described here represent later changes in gene expression networks and the early genes (at 24 h) regulated by shStat5/IST5 might be different.
(§2) Figure 3 Pathway enrichment analysis of genes regulated similarly by IST vs. genetic knockdown of Stat5 in prostate cancer cells. […] (C), mRNA levels of MCM10 and BRCA2 were reduced, determined by quantitative real-time polymerase chain reaction (qRT-PCR), in CWR22Pc cells upon genetic knockdown of Stat5 by lentiviral expression of shStat5 vs. shCtrl or by treatment with IST5 (6 µM) vs. vehicle for 3 days. […]

[3] = system: MCM10; assay: qRT-PCR mRNA level; details: CWR22Pc cells, 6 µM vs. vehicle, 3 days
Text: as §1, §2

[4] = 6 µM, FDR <0.01, fold change >2 or <−2

O=P(O)(O)OCC1OC(n2cnc3c(NCc4ccccc4)ncnc32)C(O)C1O (centres unmarked) [IST5]
transcripts down-regulated [1, 4]: 765 | transcripts upregulated [1, 4]: 324 | Pearson correlation coefficient of transcriptomes regulated by shStat5 vs. IST5 ([1]; IST5 6 µM): 0.98–0.99 | mRNA level of BRCA2 [2]: reduced | mRNA level of MCM10 [3]: reduced
